Measurements as given in patent US20240299484A1, “DILEUCINE COMPOSITIONS AND METHODS OF USE THEREOF” (Ingenious Ingredients, LP, priority 2023, published 2024).
Marks after values point to notes of the source that are not given here.

Columns and labels:
TH2 = assay: Immune health biomarkers (T helper subsets): TH2; assay type: in vivo, Swiss Albino mice; settings: for TH2(%): T helper subset in blood after 28 days, mice, n = 8; for TH2 Change over control [%]: vs Exercise Control, 28 days
Experimental: PMI Nutrition International, Brentwood, MO, USA). Distilled water was provided ad libitum. All animal experiments were reviewed and approved by the Institutional Animal Ethical Committee (IAEC) of Radiant Research Services Pvt. Ltd (Bangalore, India). All research was conducted in accordance with the guidelines of the committee for the purpose of control and supervision of experiments on animals (CPCSEA Registration Number-1803/PO/[…]). […] (1) vehicle control; […] (4) paraxanthine+dileucine; […] The dose administered to the mice was calculated using US Food and Drug Administration for human equivalence doses (HED), assuming a human weight of 60 kg. […] Dosing was conducted via oral gavage using disposable polypropylene syringes with sterilized stainless steel gavage tubes. The food intake and water consumption were monitored daily, and BW was recorded weekly. The last dose on day 28 was given 1 hour prior to testing. Serum and plasma samples were separated by centrifuging the blood at 8000 rpm for 10 mins and analyze the below mentioned biomarkers, Biomarkers: TC, TG, LDL and HDL, CRP, Serum lactate, Ammonia, Glucose, NO, IL-2, IL-6, IL-10. Blood was collected in EDTA tubes for below mentioned biomarkers, Immune health Biomarkers (T helper subsets): […]

Tfh = assay: Immune health biomarkers (T helper subsets): Tfh; assay type: in vivo, Swiss Albino mice; settings: for Tfh(%) (mg/L): T helper subset in blood after 28 days, mice, n = 8; for Tfh Change over control [%]: vs Exercise Control, 28 days
Experimental: Eight 8-week-old male Swiss Albino mice per experimental group were housed in an animal room at a constant temperature (22±3° C.) and humidity (30%-70%) under a 12:12 h light-dark cycle with standard laboratory diet (Purina 5L79, Rat and Mouse 18% protein; PMI Nutrition International, Brentwood, MO, USA). Distilled water was provided ad libitum. All animal experiments were reviewed and approved by the Institutional Animal Ethical Committee (IAEC) of Radiant Research Services Pvt. Ltd (Bangalore, India). All research was conducted in accordance with the guidelines of the committee for the purpose of control and supervision of experiments on animals (CPCSEA Registration Number-1803/PO/RcBi/S/2015/CPCSEA).
After one week of acclimation, the animals were randomly divided by body weight into different groups (n=8 per group in each test) for oral treatment once a day, at approximately same time each day (+1 hour), for 28 consecutive days: (1) vehicle control; (2) paraxanthine (3) dileucine; (4) paraxanthine+dileucine; (5) L-arginine; (6) L-arginine+dileucine; (7) L-citrulline; and (8) L-citrulline+dileucine. The dose administered to the mice was calculated using US Food and Drug Administration for human equivalence doses (HED), assuming a human weight of 60 kg. The following HED were used in this study: 2,000 mg dileucine (RAMPS™, Ingenious Ingredients, L.P., Lewisville, TX, USA; mouse 411 mg/kg bw), 100 mg paraxanthine, (ENFINITY™, Ingenious Ingredients, L.P Lewisville, TX, USA; mouse dose: 20.5 mg/kg bw/day); 3,000 mg L-arginine (Nanjing Nutrabuilding Bio-tech Co., LTD., No. 270 Jiqingmen Strect, Suning Huigu, Building E6, Room 2105, Nanjing, China 210017; mouse 616.55 mg/kg bw), 3,000 mg L-citrulline (Nanjing Nutrabuilding Bio-tech Co., LTD., No. 270 Jiqingmen Street, Suning Huigu, Building E6, Room 2105, Nanjing, China 210017; mouse 616.55 mg/kg bw). 0.5% Carboxy Methyl Cellulose sodium was used as vehicle and the test item formulations were prepared daily. Dosing was conducted via oral gavage using disposable polypropylene syringes with sterilized stainless steel gavage tubes. The food intake and water consumption were monitored daily, and BW was recorded weekly. The last dose on day 28 was given 1 hour prior to testing.
Serum and plasma samples were separated by centrifuging the blood at 8000 rpm for 10 mins and analyze the below mentioned biomarkers, Biomarkers: TC, TG, LDL and HDL, CRP, Serum lactate, Ammonia, Glucose, NO, IL-2, IL-6, IL-10. Blood was collected in EDTA tubes for below mentioned biomarkers, Immune health Biomarkers (T helper subsets): TH1, TH2, TH17, Tfh, iTreg.

SMILES | TH2(%) (TH2) | TH2 Change over control [%] (TH2) | Tfh(%) (mg/L) (Tfh) | Tfh Change over control [%] (Tfh)
N=C(N)NCCC[C@H](N)C(=O)O [L-Arginine, L-arginine] | 40.44*** % | 252 | 44.16*** % | 465
NC(=O)NCCC[C@H](N)C(=O)O [L-Citrulline, L-citrulline] | 38.23*** % | 234 | 40.87*** % | 423
Cn1c(=O)[nH]c2ncn(C)c2c1=O [Paraxanthine, 1,7-dimethylxanthine] | 53.63*** % | 368 | 54.96*** % | 603
CC(C)C[C@H](NC(=O)[C@@H](N)CC(C)C)C(=O)O [Dileucine, L-Leucyl-L-leucine] | 53.68*** % | 368 | 55.72% | 613
